This passage reports EC50 results from patent publication US20250223281A1, “ANTIDIABETIC COMPOUNDS AND COMPOSITIONS” (REZUBIO PHARMACEUTICALS CO., LTD, priority 2022, published 2025).

In this assay the target is T1, GPR40 (Homo sapiens, UniProt O14842).
T1 construct: expressed in transfected cells; host or cells: HEK293 cells stably expressing GPR40 (Hygromycin selection)
Put plainly: IP1 accumulation assay in HEK293 cells stably expressing GPR40. The assay is classed as cell-based. As to the method: IP1 accumulation assay was used to evaluate the potency of compounds. HEK293 cells stably expressing GPR40 were cultured in 5% CO2 incubator (ThermoFisher) in maintenance media (Dulbecco's modified Eagle's medium with 4.5 g/L of glucose, 10% fetal bovine serum, 100 μg/mL Hygromycin, and Penicillin (100 U/mL)/Streptomycin (100 μg/mL)) till 100% confluency. Cells were harvested freshly, spun down at 300×g for 5 min, and resuspended in pre-warmed 1× stimulant buffer from Cisbio IP-One HTRF Detection kit (Cisbio). Cell density was adjusted to 2.0×10^6 cells/mL. DMSO was used as blank control and AMG-1638 (CAS #: 1142214-62-7) as positive control. Compounds were prepared at 10 mM in DMSO and 5 nL of 3× serially diluted compounds (10 concentrations) were added to each well of the 384-LDV assay plate (Corning) by using ECHO 550 (Labcyte). Five μL of cells in suspension were transferred into each well by using Multidrop Combi Reagent Dispenser (ThermoFisher). Assay plate was then sealed and incubated at 37° C. for 2 hours. IP-d2 reagent and anti-IP1 reagent were prepared following the manual (Cisbio). Five μL of IP1-d2 and then 5 μL of anti-IP1 antibody was added to each well sequentially. Assay plate was incubated at room temperature for 60 min and then read at 665 nm/615 nm on an Envision plate reader (PerkinElmer). The ratio of values obtained at 665 nm and 615 nm was used for calculation of IP1 accumulation: % Effect=(Ratiosample−Ratioblank)/(RatioAMG-1638−Ratioblank)×100. Dose curve was fitted and EC50 of each compound was calculated by using XLFit.

The mark [1] stands for this setting: IP1 accumulation, HEK293 cells stably expressing GPR40, 2 hours at 37° C., % effect relative to AMG-1638, table of Biological Example 1.
The mark [2] stands for this setting: Table A-8 (additional examples), obtained by methods of Biological Example 1.
The mark [3] stands for this setting: Tables A-1a to A-7b (structure-property relationship), obtained by methods of Biological Example 1.

pEC50: −log10 of the molar value.

T1 sequence (O14842 whole entry): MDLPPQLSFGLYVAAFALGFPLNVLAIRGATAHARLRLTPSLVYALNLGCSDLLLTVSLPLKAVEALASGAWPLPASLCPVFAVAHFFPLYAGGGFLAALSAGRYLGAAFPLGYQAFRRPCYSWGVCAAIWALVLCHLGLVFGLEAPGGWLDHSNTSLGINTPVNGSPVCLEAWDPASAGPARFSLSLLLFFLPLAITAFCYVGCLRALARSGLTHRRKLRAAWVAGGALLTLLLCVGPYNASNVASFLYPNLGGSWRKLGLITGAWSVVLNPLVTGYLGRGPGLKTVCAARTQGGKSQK

For the compound `C[C@H](C(=O)O)[C@H](c1ccc2c(c1)O[C@@H](C1CCN(Cc3cc(-n4cc(CCCCCCCCCCCCC(=O)NCCN(CCC(=O)NCCN)CCC(=O)NCCN)nn4)ccc3OC(F)(F)F)CC1)CC2)C1CC1` [Example 1, (2S,3R)-3-((R)-2-(1-(5-(4-(13-((2-(bis(3-((2-aminoethyl)amino)-3-oxopropyl)amino)ethyl)amino)-13-oxotridecyl)-1H-1,2,3-triazol-1-yl)-2-(trifluoromethoxy)benzyl)piperidin-4-yl)chroman-7-yl)-3-cyclopropyl-2-methylpropanoic acid], the pEC50 was 8.26 under setting [1], 8.26 under setting [2] and 8.26 under setting [3].
The compound `COc1ccc(C(=O)N(CC(C)(C)CCCCCCn2cc(CCCCCCCCCCCCCCCCCC(=O)NCCCN(C)CC(=O)NCCN)nn2)c2cccc(C)n2)c(N2CCC(COc3cc([C@@H](CC(=O)O)C4CC4)ccn3)CC2)c1` [Example 149] gave a negative logarithm of the EC50 (pEC50) under setting [1] of 10.05.
The same measure, in the same setting: the value for `COc1ccc(F)c(-c2ccc(COc3cccc([C@@H](CC(=O)O)C4CC4)c3)cc2C(C)(C)c2cn(CCCCCCCCCC(=O)NCC[N+](C)(CCC(=O)NCCN)CCC(=O)NCCN)nn2)c1` [Example 143] was under 5.00.
Take `COc1ccc(F)c(-c2ccc(COc3cccc([C@@H](CC(=O)O)C4CC4)c3)cc2CC(C)(C)Cn2cc(CCCCCCCCCCCC(=O)NCCCN(CC(=O)O)CC(=O)O)nn2)c1` [Example 120]: the pEC50 under setting [1] is 5.89.
As to `COc1ccc(C(=O)N(CC(C)(C)CCn2cc(CCCCCCCCC(=O)NCC[N+](C)(CCC(=O)NCCN)CCC(=O)NCCN)nn2)c2cccc(C)n2)c(N2CCC(COc3cc([C@@H](CC(=O)O)C4CC4)ccn3)CC2)c1` [Example 111], the pEC50 under setting [1] is 6.51 and the pEC50 under setting [3] is 6.51.
`COc1ccc(F)c(-n2nnc(COc3cccc([C@@H](CC(=O)O)C4CC4)c3)c2CC(C)(C)Cn2cc(CCCCCCCCCCCCCCCC(=O)NCC[N+](C)(CCC(=O)NCCN)CCC(=O)NCCN)nn2)c1` [Example 181] had a pEC50 under setting [1] of 7.79.
Under setting [1], `COc1ccc(F)c(-c2ccc(COc3cccc([C@@H](CC(=O)O)C4CC4)c3)cc2CC(C)(C)Cn2cc(CCCCCCCCCCCCCC(=O)NCCCN(CC(=O)NCCN)CC(=O)NCCN)nn2)c1` [Example 152] gave a pEC50 of 7.46.
With `COc1ccc(F)c(-c2ccc(COc3cccc([C@@H](CC(=O)O)C4CC4)c3)cc2CC(C)(C)Cn2cc(CCCCCCCCCC(=O)NCC[N+](C)(CCC(=O)NCCN)CCC(=O)NCCN)nn2)c1` [Example 192], the pEC50 is, setting by setting: under setting [1], 6.60; under setting [2], 6.60; under setting [3], 6.60.
With `COc1ccc(F)c(-c2ccc(COc3cccc([C@@H](CC(=O)O)C4CC4)c3)cc2C(C)(C)c2cn(CCCCCCCCCCCCCCC(=O)NCCN(CCC(=O)NCCN)CCC(=O)NCCN)nn2)c1` [Example 47], the pEC50 under setting [1] was 6.93.
Same read-out and setting: the value for `COc1ccc(F)c(-c2ccc(COc3cccc([C@@H](CC(=O)O)C4CC4)c3)cc2C(OCCCCCn2cc(CCCCCCCCCCCCCCCCCC(=O)NCCN(CCC(=O)NCCN)CCC(=O)NCCN)nn2)C(C)(C)C)c1` (stereo partly shown) [Example 12] was 8.95.
Regarding `C[C@H](C(=O)O)[C@H](c1ccc2c(c1)O[C@@H](C1CCN(Cc3cc(-n4cc(CCCCCCCCCC(=O)NCC[N+](C)(CCC(=O)NCCN)CCC(=O)NCCN)nn4)ccc3OC(F)(F)F)CC1)CC2)C1CC1` [Example 194], the pEC50 by setting is: under setting [1], 6.94; under setting [2], 7.03; under setting [3], 6.94.
With `COc1ccc(F)c(-c2ccc(COc3cccc([C@@H](CC(=O)O)C4CC4)c3)cc2CC(C)(C)Cc2cn(CCCCCCCCCC(=O)NCCN(CCC(=O)NCCN)CCC(=O)NCCN)nn2)c1` [Example 135], the pEC50 reads like this: under setting [1], 5.43; under setting [3], under 5.43.
Compound `COc1ccc(F)c(-c2ccc(COc3cccc([C@@H](CC(=O)O)C4CC4)c3)cc2CC(C)(C)Cn2cc(CCCCCCCCCCCCCCC(=O)NCCCN(CC(=O)O)CC(=O)O)nn2)c1` [Example 108] had a negative-log EC50 (pEC50) under setting [1] of 6.51.
The same measure, in the same setting: the value for `C[C@H](C(=O)O)[C@H](c1ccc2c(c1)O[C@@H](C1CCN(Cc3cc(-n4cc(CCCCCCCCCCCCCCCCCC(=O)NCC[N+](C)(C)C)nn4)ccc3OC(F)(F)F)CC1)CC2)C1CC1` [Example 70] was 9.37.
The compound `COc1ccc(F)c(-c2ccc(COc3cccc([C@@H](CC(=O)O)C4CC4)c3)cc2CC(C)(C)Cc2cn(CCCCCCCCCC(=O)NCC[N+](C)(CCC(=O)NCCN)CCC(=O)NCCN)nn2)c1` [Example 96] showed a pEC50 under setting [1] of 5.98 and a pEC50 under setting [3] of 5.98.
Turning to `COc1ccc(F)c(-c2ccc(COc3cccc([C@@H](CC(=O)O)C4CC4)c3)cc2CC(C)(C)Cn2cc(CCCCCCC(=O)NCCN(CCC(=O)NCCN)CCC(=O)NCCN)nn2)c1` [Example 94], the pEC50 is, setting by setting: under setting [1], 5.71; under setting [3], 5.71.
For the compound `COc1ccc(F)c(-c2ccc(COc3cccc([C@@H](CC(=O)O)C4CC4)c3)cc2CC(C)(C)Cc2cn(CCCCCCCCCCCCCCCC(=O)NCC[N+](C)(CCC(=O)NCCN)CCC(=O)NCCN)nn2)c1` [Example 90], the pEC50 was 8.59 under setting [1] and 8.59 under setting [3].
Turning to `COc1ccc(C(=O)N(CC(C)(C)CCn2cc(COCCOCCOCC(=O)NCCN(CCC(=O)NCCN)CCC(=O)NCCN)nn2)c2cccc(C)n2)c(N2CCC(COc3cc([C@@H](CC(=O)O)C4CC4)ccn3)CC2)c1` [Example 159], the pEC50 under setting [1] is under 5.22 and the pEC50 under setting [2] is under 5.22.
For `COc1ccc(F)c(-c2ccc(COc3cccc([C@@H](CC(=O)O)C4CC4)c3)cc2CC(C)(C)Cn2cc(COCCOCCOCC(=O)NCC[N+](C)(CCC(=O)NCCN)CCC(=O)NCCN)nn2)c1` [Example 168], the pEC50 was under 5.00 under setting [1] and under 5.00 under setting [2].
For the compound `COc1ccc(C(=O)N(CC(C)(C)CCCCCCCCCCCCCCCCCCCC(=O)NCC[N+](C)(CCC(=O)NCCN)CCC(=O)NCCN)c2cccc(C)n2)c(N2CCC(COc3cc([C@@H](CC(=O)O)C4CC4)ccn3)CC2)c1` [Example 65, (S)-3-((2-aminoethyl)amino)-N-(3-((2-aminoethyl)amino)-3-oxopropyl)-N-(2-(22-(2-(4-(((4-(2-carboxy-1-cyclopropylethyl)pyridin-2-yl)oxy)methyl)piperidin-1-yl)-4-methoxy-N-(6-methylpyridin-2-yl)benzamido)-21,21-dimethyldocosanamido)ethyl)-N-methyl-3-oxopropan-1-aminium chloride], the negative logarithm of the EC50 (pEC50) under setting [1] was 9.55.
In turn, `C[C@H](C(=O)O)[C@H](c1ccc2c(c1)O[C@@H](C1CCN(Cc3cc(-c4cn(CCCCCCCCCCCCCCCCCC(=O)NCCN(CCC(=O)NCCN)CCC(=O)NCCN)nn4)ccc3OC(F)(F)F)CC1)CC2)C1CC1` [Example 6] had a pEC50 under setting [1] of 8.92 and a pEC50 under setting [3] of 8.92.
`COc1ccc(F)c(-c2ccc(COc3cccc([C@@H](CC(=O)O)C4CC4)c3)cc2CC(C)(C)Cn2cc(CCCCCCCCCC(=O)NCCC[N+](C)(CC(=O)[O-])CC(=O)O)nn2)c1` (stereo partly shown) [Example 105] had a pEC50 under setting [1] of under 5.00.
With `COc1ccc(C(=O)N(CC(C)(C)CCn2cc(COCCOCCOCCOCCOCC(=O)NCC[N+](C)(CCC(=O)NCCN)CCC(=O)NCCN)nn2)c2cccc(C)n2)c(N2CCC(COc3cc([C@@H](CC(=O)O)C4CC4)ccn3)CC2)c1` [Example 164], the pEC50 reads like this: under setting [1], 5.88; under setting [2], 5.88.
In the case of `COc1ccc(C(=O)N(CC(C)(C)CCCCCCn2cc(CCCCCCCCCCCCCC(=O)NCCN(CCC(=O)NCCN)CCC(=O)NCCN)nn2)c2cccc(C)n2)c(N2CCC(COc3cc([C@@H](CC(=O)O)C4CC4)ccn3)CC2)c1` [Example 189], the pEC50 is, setting by setting: under setting [1], 10.30; under setting [3], 10.30.
For `COc1ccc(F)c(-c2ccc(COc3cccc([C@@H](CC(=O)O)C4CC4)c3)cc2CC(C)(C)Cn2cc(CCCCCCCCC(=O)NCCN(CCC(=O)NCCN)CCC(=O)NCCN)nn2)c1` [Example 220], the pEC50 was under 5.00 under setting [1] and under 5.00 under setting [3].
Compound `COc1ccc(F)c(-c2ccc(COc3cccc([C@@H](CC(=O)O)C4CC4)c3)cc2OC(C)(C)Cn2cc(CCCCCCCCCCCCCC(=O)NCC[N+](C)(CCC(=O)NCCN)CCC(=O)NCCN)nn2)c1` [Example 142] had a pEC50 under setting [1] of 7.51.
Take `COc1ccc(C(=O)N(CC(C)(C)CCn2cc(CCCCCCCCCC(=O)NCCC[N+](C)(CC(=O)[O-])CC(=O)O)nn2)c2cccc(C)n2)c(N2CCC(COc3cc([C@@H](CC(=O)O)C4CC4)ccn3)CC2)c1` (stereo partly shown) [Example 125]: the pEC50 is 6.21 under setting [1] and 6.21 under setting [3].
For the compound `COc1ccc(C(=O)N(CC(C)(C)CCn2cc(CCCCC(=O)NCC[N+](C)(CCC(=O)NCCN)CCC(=O)NCCN)nn2)c2cccc(C)n2)c(N2CCC(COc3cc([C@@H](CC(=O)O)C4CC4)ccn3)CC2)c1` [Example 199], the pEC50 is under 5.00 under setting [1] and under 5.00 under setting [3].
Regarding `COc1ccc(F)c(-c2ccc(COc3cccc([C@@H](CC(=O)O)C4CC4)c3)cc2CC(C)(C)Cc2cn(CCCCCCCCCCCCCC(=O)NCC[N+](C)(CCC(=O)NCCN)CCC(=O)NCCN)nn2)c1` [Example 22], the pEC50 by setting is: under setting [1], 7.31; under setting [3], 7.31.
